Measured values taken from patent US20240166684A1 (priority 2021, published 2024).
pIC50: −log10 of the molar value. Entries after “also recorded” stand apart in the source; their conditions may differ. Read-outs that look alike come from different tables or passages of the source. Non-standard residues stand in square brackets, D forms with d. Residues, ends and D or L forms follow the SMILES beside them. *: point of attachment. Nle = CCCC[C@H](N)C(=O)O; Cbz = O=C(OCc1ccccc1)*

Tests used:
GFAP = assay type: cell-based, human
PrP^C [1] = conditions: for effect of co-incubated inhibitor on ouabain-induced reduction in PrP^C levels: 25 nM ouabain or 20 nM ouabain; for effect on steady-state PrP^C levels: 3-day exposure (FIG. 7), ouabain 20 nM
ATP1A2 = assay type: cell-based, human
ATP1A1 = assay type: cell-based, human
ATP1A3 = assay type: cell-based, human
[2] = test system: class III beta tubulin (Tuj-1); assay type: cell-based, human
ReN VM cells [3] = conditions: human
NKA β subunit = assay type: cell-based, human
[4] = cited from earlier work
[5] = mouse, in vivo, sc
HeLa cells = conditions: cited from earlier work
PrP^C [6] = conditions: literature screens; cited from earlier work
ReN VM cells [7] = assay: cells; assay type: cell-based; conditions: Homo sapiens, 168 h, read-out: cellular toxicity: concentration at which ATP levels drop to 50% of mock-treated control
ReN VM cells [8] = assay: cells; assay type: cell-based; conditions: Homo sapiens, 168 h, read-out: concentration at which metabolic activity dropped to 50%
ReN VM cells [9] = assay: cells; assay type: cell-based, human
NKAs [10] = conditions: cited from earlier work
NKAs [11] = conditions: cited from earlier work; remark: listed apart in the source
NKAs [12] = test system: NKAs
[13] = test system: 5′-ectonucleotidase (5′-NT); assay type: cell-based, human
[14] = differentiated ReN VM cells, one-week exposure

CCCC[C@@H](C=O)NC(=O)[C@H](CC(C)C)NC(=O)[C@H](CC(C)C)NC(C)=O [A6185, N-acetyl-Leu-Leu-norleucinal] (Ac-Leu-Leu-[Nle]-aldehyde)
effect on ouabain-induced formation of faster migrating GFAP bands (GFAP): blocked the excessive formation of faster migrating bands
effect of co-incubated inhibitor on ouabain-induced reduction in PrP^C levels (PrP^C [1]): did neither prevent
effect on steady-state PrP^C levels (PrP^C [1]; ReN VM cells): diminished
effect on steady-state ATP1A2 levels (ATP1A2): diminished
effect on steady-state ATP1A1 levels (ATP1A1): no apparent effect
effect on steady-state ATP1A3 levels (ATP1A3): no apparent effect

COC1C[C@H](O[C@H]2CC[C@]3(C)C4CC[C@]5(C)[C@@H](C6=CC(=O)OC6)[C@@H](OC(C)=O)C[C@]5(O)[C@@H]4CC[C@@H]3C2)OC(C)C1=O (stereo partly drawn) [I-3, 4′-dehydro-oleandrin]
effect on Tuj-1 levels [2]: not paralleled by significant changes
tolerated concentration (ReN VM cells [3]): up to 30 nM
toxic concentration (ReN VM cells [3]): ≥ 40 nM
effect on NKA β subunit levels (NKA β subunit): lesser, yet also pronounced reduction
effect on steady-state GFAP levels (GFAP): not paralleled by significant changes
oral effectiveness (oral versus intravenous lethal doses), increase relative to oleandrin ([4]; cats): approximately 20%
oral toxicity relative to oleandrin ([4]; in vivo, po): almost twofold lower
maximum reduction in steady-state PrP^C levels (PrP^C [1]; 12 nM, one week, ReN VM cells): 84%
concentration at which PrP^C signal rebounds / migrates differently in SDS-PAGE (PrP^C [1]; [14]): 20 to 32 nM
concentrations causing concentration-dependent reduction of steady-state PrP^C levels (PrP^C [1]; [14]): 4 to 16 nM
effect of I-3 on steady-state ATP1A2 levels (ATP1A2): declined as levels of exemplary compound I-3 were increased
concentration achieving similar reduction in ATP1A1 levels (ATP1A1): 4 nM
concentrations causing reduction of steady-state ATP1A1 levels (ATP1A1): up to 16 nM
concentration at which ATP1A3 levels reach a maximum (ATP1A3): 24 to 32 nM
concentration up to which ATP1A3 levels stayed unchanged (ATP1A3): up to 8 nM
concentration accumulated in the brain [5]: 38.8 nM
time of highest levels in heart, kidney and liver [5]: 4 h
pIC50 (HeLa cells): 7.34
cytotoxicity relative to oleandrin (HeLa cells): slightly reduced relative to oleandrin

CC(C)C[C@@H](C=O)NC(=O)[C@H](CC(C)C)NC(=O)[C@H](CC(C)C)NC(=O)OCc1ccccc1 [MG132] (Cbz-Leu-Leu-Leu-aldehyde)
effect of co-incubated inhibitor on ouabain-induced reduction in PrP^C levels (PrP^C [1]): failed to block
effect of co-incubated inhibitor on ouabain-induced reduction in ATP1A1 levels (ATP1A1): caused an increase in ATP1A1 steady-state levels

C=CC[C@@H]1/C=C(\C)C[C@H](C)C[C@H](OC)[C@H]2O[C@@](O)(C(=O)C(=O)N3CCCC[C@H]3C(=O)O[C@H](/C(C)=C/[C@@H]3CC[C@@H](O)[C@H](OC)C3)[C@H](C)[C@@H](O)CC1=O)[C@H](C)C[C@@H]2OC [Tacrolimus]
effective concentrations for reducing PrP^C levels (PrP^C [6]): micromolar

C[C@H]1O[C@@H](O[C@H]2[C@@H](O)C[C@H](O[C@H]3[C@@H](O)C[C@H](O[C@H]4CC[C@@]5(C)[C@H](CC[C@@H]6[C@@H]5C[C@@H](O)[C@]5(C)[C@@H](C7=CC(=O)OC7)CC[C@]65O)C4)O[C@@H]3C)O[C@@H]2C)C[C@H](O)[C@@H]1O [digoxin]
level above which all three measures of cellular health dropped (ReN VM cells [3]): Above 10 nM
pIC50 (ReN VM cells [7]): ~7.60
pIC50 (ReN VM cells [8]): ~7.30
increase of cellular calcium levels (ReN VM cells [9]): approximately 20%
pIC50 (ReN VM cells [9]; Homo sapiens, 168 h, read-out: concentration giving half maximum intracellular calcium levels): 7.52
time to dissociate from NKAs (NKAs [10]): 18 h

CC(=O)N[C@@H](CSC(=O)[C@]1([C@@H](O)C(C)C)NC(=O)[C@H](C)[C@@H]1O)C(=O)O [lactacystin]
effect of co-incubated inhibitor on ouabain-induced reduction in PrP^C levels (PrP^C [1]): failed to block
effect of co-incubated inhibitor on ouabain-induced reduction in ATP1A1 levels (ATP1A1): caused an increase in ATP1A1 steady-state levels

COC1C[C@H](O[C@H]2CC[C@]3(C)C4CC[C@]5(C)[C@@H](C6=CC(=O)OC6)[C@@H](OC(C)=O)C[C@]5(O)[C@@H]4CC[C@@H]3C2)OC(C)[C@@H]1O (stereo partly drawn) [oleandrin, acetic acid [(3S,5R,10S,13R,14S,16S,17′R)-14-hydroxy-3-[[(2R,4S,5S,6S)-5-hydroxy-4-methoxy-6-methyl-2-tetrahydropyranyl]oxy]-10,13-dimethyl-17-(5-oxo-2H-furan-3-yl)-1,2,3,4,5,6,7,8,9,11,12,15,16,17-tetradecahydrocyclopenta[a]phenanthren-16-yl] ester]
tolerated concentration (ReN VM cells [3]): up to 2 nM
potency of oleandrin relative to ouabain for similar reduction of ATP1A1 and PrP^C (PrP^C [1]; 7-day treatment, differentiated ReN VM cells): approximately tenfold higher potency; also recorded: tenfold lower levels
concentration achieving similar reduction in ATP1A1 levels (ATP1A1): 4 nM
concentration at which ATP1A1 levels rebound / increase (ATP1A1): around 2 nM
brain levels relative to other organs [5]: lowest in the brain
time of rapid increase in heart, kidney and liver [5]: 2 h

C[C@@H]1O[C@@H](O[C@H]2C[C@@H](O)[C@]3(CO)[C@H]4[C@H](O)C[C@]5(C)[C@@H](C6=CC(=O)OC6)CC[C@]5(O)[C@@H]4CC[C@]3(O)C2)[C@H](O)[C@H](O)[C@H]1O [ouabain]
effect on GFAP antibody-reactive bands (GFAP): an increase in the intensity levels of bands that were reactive toward GFAP-directed antibodies
effect on steady-state PrP^C levels (PrP^C [1]; ReN VM cells): reduction
concentration at which PrP^C signal rebounds / migrates differently in SDS-PAGE (PrP^C [1]; [14]): 50 nM
lowest concentration at which PrP^C reduction is apparent (PrP^C [1]; [14]): 3 nM
effect on steady-state ATP1A2 levels (ATP1A2): reduction
pIC50 (NKAs [11]): 7.39 to 7.82
concentration at which ATP1A1 levels rebound / increase (ATP1A1): 50 nM
concentrations causing reduction of steady-state ATP1A1 levels (ATP1A1): up to 30 nM
effect on steady-state ATP1A1 levels (ATP1A1): reduction
lowest concentration at which ATP1A1 reduction is apparent (ATP1A1): 3 nM
effect on steady-state ATP1A3 levels (ATP1A3): not affected
reduction of total 86Rb+ uptake by complete block of NKAs (NKAs [12]): 49%
time to dissociate from NKAs (NKAs [10]): less than two hours
effect on steady-state 5′-NT levels [13]: increase

bafilomycin
effect of co-incubated inhibitor on ouabain-induced reduction in PrP^C levels (PrP^C [1]): rescued
effect of co-incubated inhibitor on ouabain-induced reduction in ATP1A1 levels (ATP1A1): rescued

calpastatin
effect of co-incubated inhibitor on ouabain-induced reduction in PrP^C levels (PrP^C [1]): did neither prevent
effect of co-incubated inhibitor on ouabain-induced reduction in ATP1A1 levels (ATP1A1): did neither prevent
